Results reported in US7217821B2, “Photoprotective cosmetic compositions comprising para-aminobenzalmalonate-substituted s-triazine compounds” (L'Oreal, priority 2003, dated 2007).
Values joined by “and” are separate entries in the source; they are usually repeats but may differ in a detail not shown here. Equal entries are not always repeated.

Columns and labels:
[1] = Photostability of a film of oily solution under an Oriel sun simulator, quantified by HPLC; type: physicochemical; conditions: 5% by weight in Miglyol 812 oil; about 1 mg/cm^2 film; irradiated one hour, UVA=14.2 mW/cm^2, UVB=0.41 mW/cm^2; individual tests
Method: Compared photostabilities between a compound of the prior art and the compound according to the invention of Example 1:
The two products were dissolved at 5% by weight in Miglyol 812 oil. About 10 mg of oily solution are spread over 10 cm^2 onto the surface of a frosted-glass hollow disc; the amount is determined by weighing.
The films of oily solutions are irradiated for one hour using an Oriel sun simulator (UVA=14.2 mW/cm^2; UVB=0.41 mW/cm^2), and then extracted with 10 ml of ethanol containing 10% isopropanol and treated with ultrasound for 5 minutes. The quantifications of the products are performed by HPLC of the extracts.
HPLC conditions: column: UP5WOD-25QS, 250*4.6 mm, 5 μm, Interchrom; eluent: methanol (Comparative Example 1) and 96% methanol+4% water (Example 1); flow rate: 1 ml/minute; injected volume: 10 μl; detection: diode array; rt (minutes): 5.2 (Comparative Example 1) and 14.9 (Example 1).
The degrees of loss are determined by comparison of the amounts of product present in the irradiated samples and in the non-irradiated controls prepared simultaneously and treated in the same manner (average of 3 samples; S=surface area/mg solution): % loss=100*(S0-Sirr)/S0

UV absorption in ethanol = type: physicochemical

Row | SMILES | % disappearance [1] | UV E1% (UV absorption in ethanol) | UV εmax (UV absorption in ethanol) [M⁻¹ cm⁻¹] | UV λmax (UV absorption in ethanol) [nm]
1 | CC(C)(C)COC(=O)C(=Cc1ccc(Nc2nc(Nc3ccc(C=C(C(=O)OCC(C)(C)C)C(=O)OCC(C)(C)C)cc3)nc(Nc3ccc(C=C(C(=O)OCC(C)(C)C)C(=O)OCC(C)(C)C)cc3)n2)cc1)C(=O)OCC(C)(C)C [Example 1, 2,4,6-tris(dineopentyl 4′-aminobenzalmalonate)-s-triazine] | 3% and 5% and 4% | 956 | 110000 | 356
2 | CC(C)COC(=O)C(=Cc1ccc(Nc2nc(Nc3ccc(C=C(C(=O)OCC(C)C)C(=O)OCC(C)C)cc3)nc(Nc3ccc(C=C(C(=O)OCC(C)C)C(=O)OCC(C)C)cc3)n2)cc1)C(=O)OCC(C)C [Compound (prior art), 2,4,6-tris(Diisobutyl 4′-aminobenzalmalonate)-s-triazine, reference compound] | 11% and 10% and 9% |  |  | 
3 | CC(C)CC(C)OC(=O)C(=Cc1ccc(Nc2nc(Nc3ccc(C=C(C(=O)OC(C)CC(C)C)C(=O)OC(C)CC(C)C)cc3)nc(Nc3ccc(C=C(C(=O)OC(C)CC(C)C)C(=O)OC(C)CC(C)C)cc3)n2)cc1)C(=O)OC(C)CC(C)C (centres unmarked) [Example 2, 2,4,6-tris(bis(1,3-dimethylbutyl) 4′-aminobenzalmalonate)-s-triazine] |  | 922 | 111000 | 353
